{"source": "paper PMC6987146", "about": "“Potent inhibition of HIV replication in primary human cells by novel synthetic polyketides inspired by Aureothin” (Scientific Reports, 2020)", "key": {"HIV-1LAI [1]": {"test_system": "HIV-1LAI", "assay": "EASY-HIT assay: infectious virus production by LC5-RIC reporter cells exposed to HIV-1LAI", "assay_type": "cell-based", "conditions": "for Infectious virus production, median (fluorescent signal normalized to untreated virus-exposed cultures): 50 nM, LC5-RIC, secondary plates 72 h after transfer", "method": "To identify natural compounds with anti-HIV activity we screened a collection of 10,000 natural compounds: Anti-HIV activity was evaluated by determining compound effects on infectious virus production by LC5-RIC cells which are highly susceptible for HIV and contain a DsRed1-encoding reporter gene activated by HIV-infection[6]–[8]. For screening, cultures of LC5-RIC reporter cells were first exposed to virus in the presence of the compound (first-step of the assay). Subsequently, supernatants of these cultures were transferred to secondary plates with uninfected LC5-RIC cells. The fluorescent signal of the cultures in the secondary plates served as a measure of compound effects on infectious virus production.\nAnti-HIV activities of compounds were profiled in LC5-RIC cells with the EASY-HIT assay as described in[6]. Briefly, LC5-RIC cells were first exposed to virus and compounds (first step of the assay). Compound effects on infectious virus production were determined by transferring aliquots of supernatants of compound-treated cultures to secondary plates and measurement of fluorescent signal intensities in secondary plates after 72 h (second step of the assay). Fluorescent signal intensities determined for compound-treated cultures were normalized to those determined for untreated virus-exposed cultures."}, "HIV-1LAI [2]": {"test_system": "HIV-1LAI", "assay": "Inhibition of HIV infection of human PBMCs (infectious virus production, read out on LC5-RIC cells)", "assay_type": "cell-based", "conditions": "mean ± SD", "method": "(§1) To evaluate anti-HIV efficacies of test compounds in primary human target cells, stimulated PBMCs were seeded in 96-well plates at a density of 500,000 cells per well, different #7concentrations of the compound (serial dilutions) and virus inoculum (MOI of 0.5) added to the PBMCs and cultures incubated for 48 h. Infectious virus production was quantified by transferring 35 µl of supernatant from the PBMC cultures to LC5-RIC cells, seeded in black 96-well plates one day earlier. LC5-RIC cultures were then incubated for 72 h and analysed for DsRed1 reporter expression and anti-HIV activity calculated as described for the EASY-HIT assay."}, "HIV-1MMVP899-87": {"test_system": "HIV-1MMVP899-87", "assay": "Inhibition of clinical isolate HIV-1M MVP899-87 in PBMCs", "assay_type": "cell-based", "conditions": "PBMC", "excerpt": "Clinical isolates represented the following HIV genotypes: HIV-1MMVP899-87: HIV-type 1, Major group; HIV-1OMVP5180-91: HIV-type 1, Outlier group; HIV-2MVP10668-93: HIV-type 2; HIV-1V13-03413B: HIV-type 1, Major group/B-clade, isolate with multiple drug-resistance mutations. Depicted are the means of three independent experiments with biological triplicates (n = 3; m = 3) and standard deviations (SD).\nIsolation of primary clinical HIV-isolates HIV-1MMVP899-87, HIV-1OMVP5180-91, HIV-1V13-03413B and HIV-2MVP10668-93 is described in[43]. The HIV-1 M group/B-clade isolate (HIV-1V13-03413B) was isolated from a patient with virological treatment failure. Clinical isolates were produced from HIV infected H9 cells as described.\nas §1"}, "HIV-1LAI [3]": {"test_system": "HIV-1LAI", "assay": "Photostability of anti-HIV activity (24 h illumination vs dark, EASY-HIT read-out)", "assay_type": "cell-based", "conditions": "24 h illumination vs same compound kept in the dark; compounds at IC90; LC5-RIC", "method": "Figure 1 Profiling of photostability of anti-HIV activity of Aureothin and synthetic Aureothin-derivatives. Anti-HIV activity of compound samples illuminated for 24 h were normalised to anti-HIV activity of samples of the same compound kept in the dark. Anti-HIV activity was measured by quantifying the amounts of infectious virus produced by HIV-1LAI exposed LC5-RIC cells treated with compounds at IC90 concentrations (Supplementary Table S1). […] Shown are means of at least three independent experiments with biological triplicates (n ≥ 3; m = 3) and the standard error of the mean (SEM) indicated.\nLC5-RIC cells were plated as described for the EASY-HIT assay. […] Plates were incubated either in the dark or under constant illumination with a commercially available desk lamp (2X Philips Master PL-S-9W/840/2 P, 30 cm between light source and compounds) for 24 h at room temperature. For analysis of anti-HIV activity, compound samples were transferred to LC5-RIC cells and their anti-HIV activity determined by measuring compound effects on infectious virus production with the EASY-HIT assay. Relative photostability was calculated by normalizing the anti-HIV activity of the illuminated compounds to the antiviral activity of compounds kept in the dark."}, "PBMC": {"test_system": "PBMC", "assay": "CellTiter-Glo 2.0 cell viability assay in PBMC", "assay_type": "cell-based, human", "conditions": "PBMC", "method": "The following assays were used to profile cell safety of compound treatment in HIV-exposed cultures (LC5-RIC or PBMC): (1) CellTox^TM Green Cytotoxicity Assay, Promega, measures binding of a fluorescent dye to DNA of cells with impaired membrane integrity; (2) CellTiter-Glo® 2.0 Assay, Promega, which measures the amount of ATP in viable cells after lysis using an assay with luminescence read-out. Cells were plated into black 96-well plates followed by overnight incubation at 37 °C, 5% CO2. Compounds dissolved in DMSO were screened at multiple concentrations from 0.6 to 10,000 nM at a final DMSO concentration of 0.04% followed by additional 48 h incubation. Both assays were performed according to manufacturer’s recommendations and consecutively in the above mentioned order. Cells were washed once with PBS between the assays."}, "[4]": {"test_system": "HIV Gag protein (Gag-p24)", "assay": "Intracellular Gag by p24 ELISA and western blot in LC5-RIC cells", "assay_type": "cell-based", "conditions": "HIV-1LAI, 48 h", "method": "LC5-RIC cells were plated, treated with compounds and inoculated with virus as described for Alu-PCR above. Cells were harvested, washed with PBS and incubated in 200 µl of PBS + 5% Triton X-100 for 5 min at room temperature. Cell lysates were centrifuged for 5 min at 400 g, supernatants collected, diluted 1:10,000 and Gag-p24 was detected by p24 Antigen Capture Assay (ABLinc) according to the manufacturer’s protocol.\nWestern blot analysis for Gag-p24 and GAPDH was performed as described in[48], using the primary antibodies anti-hGAPDH (ThermoFisher Scientific) and anti-HIV-p24 (Calbiochem) as well as the secondary anti-mouse-peroxidase antibody (Jackson ImmunoResearch), all diluted 1:10,000. Bands were visualized by enhanced chemiluminescence and detected by Fusion FX Chemiluminescence detector. Resulting blot images were processed with Fusion FX Software (adjusting brightness and contrast) and Microsoft PowerPoint (labelling and cropping)."}, "[5]": {"target": "T1, recombinant HIV-1 reverse transcriptase (Human immunodeficiency virus type 1 group M subtype B, UniProt P04585)", "T1 construct": "using 4 ng recombinant HIV-1 reverse transcriptase; purchased Roche", "assay": "HIV Reverse Transcriptase Activity Assay (colorimetric kit)", "assay_type": "biochemical", "conditions": "10 µM", "method": "HIV Reverse Transcriptase Activity Assay. To determine the inhibitory effect of test compounds against HIV reverse transcriptase activity, the colorimetric Reverse Transcriptase Assay Kit (Roche) was performed according to manufacturer’s protocol using 4 ng recombinant HIV-1 reverse transcriptase. Efavirenz was used as reference compound."}}}
{"smiles": "CN1CC[C@H](c2c(O)cc(O)c3c(=O)cc(-c4ccccc4Cl)oc23)[C@H](O)C1", "note": "[Flavopiridol]", "values": [{"measurement": "Infectious virus production, median (fluorescent signal normalized to untreated virus-exposed cultures)", "setting": "HIV-1LAI [1]", "result": 10.38}, {"measurement": "IC50", "setting": "HIV-1LAI [1]; Human immunodeficiency virus 1, read-out: Anti-HIV in LC5-RIC, IC50", "result": "10.9 ± 0.5", "unit": "nM"}, {"measurement": "IC50", "setting": "HIV-1LAI [2]; Human immunodeficiency virus 1, Table S2, PBMC, read-out: Anti-HIV in PBMC, IC50", "result": "35.6 ± 3.46", "unit": "nM"}]}
{"smiles": "COc1oc(C2C/C(=C/C(C)=C/c3ccc(C(F)(F)F)cc3)CO2)c(C)c(=O)c1C", "note": "(stereo not shown) [compound #7]", "values": [{"measurement": "Infectious virus production, median (fluorescent signal normalized to untreated virus-exposed cultures)", "setting": "HIV-1LAI [1]", "result": 0.96}, {"measurement": "IC90", "setting": "HIV-1LAI [1]; Human immunodeficiency virus 1, read-out: IC90, 90% inhibitory concentration", "result": "13.4 ± 1.75", "unit": "nM"}, {"measurement": "IC50", "setting": "HIV-1LAI [1]; LC5-RIC cells exposed to HIV-1LAI, infectious virus production, mean ± SD, listed as #7, read-out: IC50, half maximal inhibitory concentration", "result": "< 10", "unit": "nM"}, {"measurement": "IC50", "setting": "HIV-1LAI [1]; LC5-RIC cells exposed to HIV-1LAI, infectious virus production, mean ± SD, read-out: IC50, half maximal inhibitory concentration", "result": "4.9 ± 0.16", "unit": "nM"}, {"measurement": "IC90", "setting": "HIV-1LAI [2]; Human immunodeficiency virus 1, PBMC, read-out: IC90, 90% HIV-inhibitory concentration, human PBMCs exposed to HIV-1LAI", "result": "< 45", "unit": "nM"}, {"measurement": "IC50", "setting": "HIV-1LAI [2]; Human immunodeficiency virus 1, PBMC, human PBMCs exposed to HIV-1LAI, read-out: IC50, half maximal HIV-inhibitory concentration", "result": "10.3 ± 0.65", "unit": "nM"}, {"measurement": "IC90", "setting": "HIV-1LAI [2]; read-out: IC90, 90% HIV-inhibitory concentration, human PBMCs exposed to HIV-1LAI", "result": "41 ± 1.23", "unit": "nM"}, {"measurement": "IC50", "setting": "HIV-1MMVP899-87; read-out: IC50 value, HIV-1M MVP899-87, HIV-type 1, Major group", "result": 4.11, "unit": "nM"}, {"measurement": "IC90", "setting": "HIV-1MMVP899-87; read-out: IC90 value, HIV-1M MVP899-87, HIV-type 1, Major group", "result": 12.3, "unit": "nM"}, {"measurement": "anti-HIV activity retained after exposure to light", "setting": "HIV-1LAI [3]", "result": "over 95%"}, {"measurement": "selectivity index (CC50/IC50)", "setting": "PBMC", "result": "> 970"}, {"measurement": "intracellular Gag levels", "setting": "[4]", "result": "strongly suppressed production of Gag"}, {"measurement": "inhibitory effect on Reverse transcriptase activity", "setting": "[5]", "result": "no inhibitory effects"}]}
